# Measured values reported in patent US9750689B2, “Transdermal silicone gel (silogel) compositions and methods of preparation” (Humco Holding Group, Inc., priority 2013, dated 2017).
# Read-outs that look alike come from different tables or passages of the source.
# Assay: Percutaneous absorption testing (percent of applied dose that penetrated past the stratum corneum)
# Excerpt: See Jorge, L., et al., Journal of Pain Research, Topical Preparations for Pain Relief—Efficacy and Patient Adherence, Vol. 4, No. 11-24, 2011.
# [1] = 2 Hours, eight drugs dissolved together in Salt-Stable LS Advanced
# [2] = 4 Hours, eight drugs dissolved together in Salt-Stable LS Advanced
# [3] = 8 Hours, eight drugs dissolved together in Salt-Stable LS Advanced
# [4] = 12 Hours, eight drugs dissolved together in Salt-Stable LS Advanced
# [5] = 24 Hours, eight drugs dissolved together in Salt-Stable LS Advanced
# [6] = 32 Hours, eight drugs dissolved together in Salt-Stable LS Advanced
# [7] = 48 Hours, eight drugs dissolved together in Salt-Stable LS Advanced
Structure (SMILES),"Percutaneous Absorption Testing, 2 Hours (2 h)","Percutaneous Absorption Testing, 4 Hours (4 h)","Percutaneous Absorption Testing, 8 Hours (8 h)","Percutaneous Absorption Testing, 12 Hours (12 h)","Percutaneous Absorption Testing, 24 Hours (24 h)","Percutaneous Absorption Testing, 32 Hours (32 h)","Percutaneous Absorption Testing, 48 Hours (48 h)",other results
NCC(CC(=O)O)c1ccc(Cl)cc1 (stereo not shown) [Baclofen],0%,1%,2%,3%,4%,5%,6%,–
CN(C)CCC=C1c2ccccc2C=Cc2ccccc21 [Cyclobenzaprine],0%,2%,3%,5%,7%,8%,10%,–
CNC1(c2ccccc2Cl)CCCCC1=O (stereo not shown) [Ketamine],–,–,–,–,–,–,–,"Percutaneous Absorption Testing, 2 Hours [1]: 4%; Percutaneous Absorption Testing, 4 Hours [2]: 7%; Percutaneous Absorption Testing, 8 Hours [3]: 20%; Percutaneous Absorption Testing, 12 Hours [4]: 25%; Percutaneous Absorption Testing, 24 Hours [5]: 38%; Percutaneous Absorption Testing, 32 Hours [6]: 51%; Percutaneous Absorption Testing, 48 Hours [7]: 51%"
CC(C)Cc1ccc(C(C)C(=O)O)cc1 (stereo not shown) [Ibuprofen],–,–,–,–,–,–,–,"Percutaneous Absorption Testing, 2 Hours: 5%; Percutaneous Absorption Testing, 4 Hours: 8%; Percutaneous Absorption Testing, 12 Hours: 20%; Percutaneous Absorption Testing, 24 Hours: 30%; Percutaneous Absorption Testing, 32 Hours: 39%; Percutaneous Absorption Testing, 48 Hours: 39%"
CC(=O)CCCCn1c(=O)c2c(ncn2C)n(C)c1=O [Pentoxifylline],3%,7%,26%,34%,53%,71%,71%,–
NCC1(CC(=O)O)CCCCC1 [Gabapentin],–,–,–,–,–,–,–,"Percutaneous Absorption Testing, 2 Hours [1]: 0%; Percutaneous Absorption Testing, 4 Hours [2]: 0%; Percutaneous Absorption Testing, 8 Hours [3]: 1%; Percutaneous Absorption Testing, 12 Hours [4]: 2%; Percutaneous Absorption Testing, 24 Hours [5]: 2%; Percutaneous Absorption Testing, 32 Hours [6]: 3%; Percutaneous Absorption Testing, 48 Hours [7]: 3%"
CCCCN1CCCCC1C(=O)Nc1c(C)cccc1C (stereo not shown) [Bupivacaine],0%,1%,1%,2%,3%,4%,4%,–
O=C(O)Cc1ccccc1Nc1c(Cl)cccc1Cl [Diclofenac],0%,1%,4%,4%,7%,10%,10%,–
